Values of other authors as cited in patent US20260263483A1, “LOW DOSE THERAPEUTIC SUPPLEMENT TO MODULATE CYTOKINES” (VIRBAC CORPORATION, priority 2023, published 2026).
Where two headings read alike, the source gives them in different places.

Tests used:
diabetic rats [1] = conditions: 60 mg/kg p.o., five weeks
[2] = rats, administrated orally
Wistar albino rats = conditions: gentamicin-induced renal damage, oral 2, 5 and 10 mg/kg in 14% DMSO
TGF-β1 = conditions: Balb/c 3T3 cells
diabetic rats [3] = tested on: diabetic rats
[4] = tested on: hepatic stellate cells (HSCs)

CC1(C)CC[C@]2(C(=O)O)CC[C@]3(C)C(=CC[C@@H]4[C@@]5(C)CC[C@H](O)C(C)(C)[C@@H]5CC[C@]43C)[C@@H]2C1 [oleanolic acid]
kidney function (diabetic rats [1]): ameliorates kidney function | expression of cytokines and collagen (silicotic rats): decrease the expression of cytokines and collagen

C[C@H]1[C@H](C)CC[C@]2(C(=O)O)CC[C@]3(C)C(=CC[C@@H]4[C@@]5(C)CC[C@H](O)C(C)(C)C5CC[C@]43C)[C@H]12 (some centres unmarked) [ursolic acid]
ingested ursolic acid recovered in plasma [2]: about 0.6% | reno-protective effect (Wistar albino rats): reno-protective effect | concentration that inhibits the specific binding of TGF-β 1 by 50% (TGF-β1): 3.0 µg/mL | protective effects on diabetic rats (diabetic rats [3]; high-dose, 50 mg/kg): significant protective effects | protective effects on diabetic rats (diabetic rats [3]; low-dose, 25 mg/kg): significant protective effects

C=C(C)[C@@H]1CC[C@]2(CO)CC[C@]3(C)[C@H](CC[C@@H]4[C@@]5(C)CC[C@H](O)C(C)(C)[C@@H]5CC[C@]43C)[C@@H]12 [betulin]
ethanol-induced activation of hepatic stellate cells [4]: inhibited
